Columns and labels:
[1] = Stability in human plasma assessed as compound remaining at 100 uM measured after 5 mins by LC-MS/MS analysis; type: ADME, cell-free; settings: read-out: Stability
[2] = Stability in human plasma assessed as compound remaining at 100 uM measured after 30 mins by LC-MS/MS analysis; type: ADME, cell-free; settings: read-out: Stability
[3] = Stability in human plasma assessed as compound remaining at 100 uM measured after 15 mins by LC-MS/MS analysis; type: ADME, cell-free; settings: read-out: Stability
[4] = Stability in human plasma assessed as compound remaining at 100 uM measured after 120 mins by LC-MS/MS analysis; type: ADME, cell-free; settings: read-out: Stability
[5] = Stability in human plasma assessed as compound remaining at 100 uM measured after 60 mins by LC-MS/MS analysis; type: ADME, cell-free; settings: read-out: Stability
[6] = Metabolic stability in liver microsome (unknown origin) assessed as intrinsic clearance at 0.5 mg/mL measured up to 60 mins by LC-MS/MS analysis; type: ADME; settings: human, liver microsomes, read-out: CLH
[7] = Metabolic stability in liver microsomes (unknown origin) assessed as half life at 0.5 mg/ml measured up to 60 mins by LC-MS/MS analysis; type: ADME, Microsome; settings: human
[8] = molecular target: T1, CYP2C8 (Homo sapiens, UniProt P10632); experiment: Inhibition of CYP2C8 in human liver microsome at 10 uM pre-incubated with compound for 5 mins followed NADPH addition and measured after 5 mins by LC-MS/MS analysis relative to control; type: ADME; settings: liver microsomes, time 10 min
T1 sequence (P10632 whole entry): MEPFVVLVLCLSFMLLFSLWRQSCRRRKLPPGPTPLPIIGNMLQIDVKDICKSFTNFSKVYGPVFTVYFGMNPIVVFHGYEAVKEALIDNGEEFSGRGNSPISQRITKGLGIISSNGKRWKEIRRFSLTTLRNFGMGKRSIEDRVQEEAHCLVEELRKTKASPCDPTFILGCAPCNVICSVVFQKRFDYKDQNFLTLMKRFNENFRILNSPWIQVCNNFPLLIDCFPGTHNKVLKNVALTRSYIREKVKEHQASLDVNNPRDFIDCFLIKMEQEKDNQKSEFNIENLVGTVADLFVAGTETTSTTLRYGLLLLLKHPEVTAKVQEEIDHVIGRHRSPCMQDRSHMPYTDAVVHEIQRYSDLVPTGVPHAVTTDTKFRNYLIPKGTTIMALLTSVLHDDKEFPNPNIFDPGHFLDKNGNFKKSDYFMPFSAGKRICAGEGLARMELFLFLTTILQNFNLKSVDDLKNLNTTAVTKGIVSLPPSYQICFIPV

[9] = molecular target: CYP2C9 (Homo sapiens, UniProt P11712); experiment: Inhibition of CYP2C9 in human liver microsome at 3 uM pre-incubated with compound for 5 mins followed NADPH addition and measured after 10 mins by LC-MS/MS analysis relative to control; settings: liver microsomes
[10] = molecular target: T2, CYP1B1 (Homo sapiens, UniProt Q16678); experiment: Inhibition of human recombinant CYP1B1 using 7-ethoxyresorufin as substrate at 100 uM incubated under dark condition for 30 mins in presence of NADPH by EROD fluorescence assay relative to control; type: ADME; settings: recombinant CYP1B1, probe 7-ethoxyresorufin
T2 sequence (Q16678 whole entry): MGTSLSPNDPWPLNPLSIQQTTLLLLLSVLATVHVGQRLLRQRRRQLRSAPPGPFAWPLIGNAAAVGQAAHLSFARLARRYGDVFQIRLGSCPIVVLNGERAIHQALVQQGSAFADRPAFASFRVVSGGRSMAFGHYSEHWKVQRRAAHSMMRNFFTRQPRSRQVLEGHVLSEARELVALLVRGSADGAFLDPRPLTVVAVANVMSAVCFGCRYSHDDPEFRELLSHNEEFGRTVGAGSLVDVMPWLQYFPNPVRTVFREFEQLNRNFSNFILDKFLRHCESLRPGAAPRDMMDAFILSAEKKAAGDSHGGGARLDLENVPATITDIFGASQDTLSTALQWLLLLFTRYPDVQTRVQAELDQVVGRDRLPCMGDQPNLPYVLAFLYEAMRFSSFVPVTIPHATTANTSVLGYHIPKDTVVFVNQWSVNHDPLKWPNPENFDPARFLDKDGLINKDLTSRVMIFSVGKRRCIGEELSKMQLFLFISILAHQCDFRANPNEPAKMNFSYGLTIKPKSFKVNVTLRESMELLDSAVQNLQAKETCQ

[11] = organism: Homo sapiens; experiment: Selectivity index, ratio of IC50 for human recombinant CYP1A1 to IC50 for human recombinant CYP1B1 using 7-ethoxyresorufin as substrate
[12] = molecular target: T3, Cytochrome P450 1B1 (Homo sapiens, UniProt Q16678); experiment: Inhibition of human recombinant CYP1B1 using 7-ethoxyresorufin as substrate incubated under dark condition for 30 mins in presence of NADPH by EROD fluorescence assay; type: ADME
T3 sequence (Q16678 whole entry): T2 sequence (Q16678 whole entry)

[13] = organism: Homo sapiens; experiment: Selectivity index, ratio of IC50 for human recombinant CYP1A2 to IC50 for human recombinant CYP1B1 using 7-ethoxyresorufin as substrate
[14] = molecular target: T4, Cytochrome P450 1A2 (Homo sapiens, UniProt P05177); experiment: Inhibition of human recombinant CYP1A2 using 7-ethoxyresorufin as substrate incubated under dark condition for 45 mins in presence of NADPH by EROD fluorescence assay; type: ADME
T4 sequence (P05177 whole entry): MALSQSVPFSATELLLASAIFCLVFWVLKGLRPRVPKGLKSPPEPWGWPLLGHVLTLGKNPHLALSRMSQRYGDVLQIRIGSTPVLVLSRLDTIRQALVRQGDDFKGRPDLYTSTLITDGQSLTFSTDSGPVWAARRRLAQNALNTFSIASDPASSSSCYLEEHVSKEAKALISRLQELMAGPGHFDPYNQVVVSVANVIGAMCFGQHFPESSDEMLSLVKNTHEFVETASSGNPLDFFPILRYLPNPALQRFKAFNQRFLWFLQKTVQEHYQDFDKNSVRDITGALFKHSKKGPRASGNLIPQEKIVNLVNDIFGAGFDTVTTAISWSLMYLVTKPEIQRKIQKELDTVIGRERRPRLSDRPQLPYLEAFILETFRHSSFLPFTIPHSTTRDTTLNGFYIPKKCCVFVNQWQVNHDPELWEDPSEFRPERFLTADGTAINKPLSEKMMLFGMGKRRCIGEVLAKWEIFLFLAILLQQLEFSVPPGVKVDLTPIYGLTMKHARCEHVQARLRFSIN

[15] = molecular target: T5, Cytochrome P450 1A1 (Homo sapiens, UniProt P04798); experiment: Inhibition of human recombinant CYP1A1 using 7-ethoxyresorufin as substrate incubated under dark condition for 15 mins in presence of NADPH by EROD fluorescence assay; type: ADME
T5 sequence (P04798 whole entry): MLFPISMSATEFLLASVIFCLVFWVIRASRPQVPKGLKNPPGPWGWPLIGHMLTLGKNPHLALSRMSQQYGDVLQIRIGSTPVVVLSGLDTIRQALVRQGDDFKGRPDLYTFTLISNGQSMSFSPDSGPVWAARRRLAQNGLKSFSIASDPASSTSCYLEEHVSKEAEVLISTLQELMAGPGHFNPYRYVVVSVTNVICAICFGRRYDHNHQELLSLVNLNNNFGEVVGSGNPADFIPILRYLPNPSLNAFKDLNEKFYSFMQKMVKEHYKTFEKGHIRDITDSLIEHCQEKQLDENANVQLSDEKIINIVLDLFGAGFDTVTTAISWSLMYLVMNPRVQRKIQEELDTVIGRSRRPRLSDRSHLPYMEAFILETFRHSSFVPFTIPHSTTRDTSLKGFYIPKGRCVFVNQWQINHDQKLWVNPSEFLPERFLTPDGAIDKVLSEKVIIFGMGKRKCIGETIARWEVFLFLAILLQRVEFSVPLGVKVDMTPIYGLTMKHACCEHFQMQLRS

[16] = molecular target: CYP2C19 (Homo sapiens, UniProt P33261); experiment: Inhibition of CYP2C19 in human liver microsome at 3 uM pre-incubated with compound for 5 mins followed NADPH addition and measured after 30 mins by LC-MS/MS analysis relative to control; type: ADME; settings: liver microsomes, time 35 min
[17] = Selectivity ratio of IC50 for antiproliferative activity against human A549/Taxol cells to IC50 for antiproliferative activity against human A549 cells; type: functional
[18] = tested on: A549; experiment: Antiproliferative against human A549 cells assessed as inhibition of cell viability incubated for 48 hrs by CCK-8 assay; type: functional, cell-based; settings: A549, 48 h
[19] = tested on: A549/TR; experiment: Antiproliferative activity against human A549/Taxol cells assessed inhibition of cell viability incubated for 48 hrs by CCK-8 assay; type: functional, cell-based
[20] = molecular target: CYP2D6 (Homo sapiens, UniProt P10635); experiment: Inhibition of CYP2D6 in human liver microsome at 3 uM pre-incubated with compound for 5 mins followed NADPH addition and measured after 10 mins by LC-MS/MS analysis relative to control; settings: liver microsomes
[21] = tested on: A549/TR; experiment: Inhibition of cell invasion in human A549/Taxol cells assessed as invasive cells at 5 uM incubated for 24 hrs by transwell invasion assay relative to control; type: functional; design: scale not given: the % may be the effect or the level left
[22] = tested on: A549/TR; experiment: Inhibition of cell migration in human A549/Taxol cells assessed as wound closure at 5 uM measured after 24 hrs by scratch-wound healing assay relative to control; type: functional; design: scale not given: the % may be the effect or the level left
[23] = Cytotoxicity against HUVEC assessed as inhibition of cell viability incubated for 48 hrs by CellTiter Glo assay; type: toxicity, cell-based; settings: human, HUVEC cells
[24] = Cytotoxicity against human BEAS-2B cells assessed as inhibition of cell viability incubated for 48 hrs by CCK-8 assay; type: toxicity, cell-based

CYP2C9, sequence (P11712 whole entry): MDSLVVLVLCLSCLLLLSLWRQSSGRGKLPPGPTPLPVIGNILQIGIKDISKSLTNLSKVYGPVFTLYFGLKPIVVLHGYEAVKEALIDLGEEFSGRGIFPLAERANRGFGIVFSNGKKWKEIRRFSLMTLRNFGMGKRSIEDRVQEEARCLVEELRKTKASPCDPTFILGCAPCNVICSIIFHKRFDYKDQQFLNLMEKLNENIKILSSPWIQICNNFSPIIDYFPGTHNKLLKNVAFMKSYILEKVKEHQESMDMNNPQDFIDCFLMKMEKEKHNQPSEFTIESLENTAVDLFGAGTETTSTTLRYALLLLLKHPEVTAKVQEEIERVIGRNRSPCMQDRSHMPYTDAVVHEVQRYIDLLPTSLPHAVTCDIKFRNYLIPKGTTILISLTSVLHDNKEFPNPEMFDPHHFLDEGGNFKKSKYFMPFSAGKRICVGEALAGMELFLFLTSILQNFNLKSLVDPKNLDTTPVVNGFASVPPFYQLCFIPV
CYP2C19, sequence (P33261 whole entry): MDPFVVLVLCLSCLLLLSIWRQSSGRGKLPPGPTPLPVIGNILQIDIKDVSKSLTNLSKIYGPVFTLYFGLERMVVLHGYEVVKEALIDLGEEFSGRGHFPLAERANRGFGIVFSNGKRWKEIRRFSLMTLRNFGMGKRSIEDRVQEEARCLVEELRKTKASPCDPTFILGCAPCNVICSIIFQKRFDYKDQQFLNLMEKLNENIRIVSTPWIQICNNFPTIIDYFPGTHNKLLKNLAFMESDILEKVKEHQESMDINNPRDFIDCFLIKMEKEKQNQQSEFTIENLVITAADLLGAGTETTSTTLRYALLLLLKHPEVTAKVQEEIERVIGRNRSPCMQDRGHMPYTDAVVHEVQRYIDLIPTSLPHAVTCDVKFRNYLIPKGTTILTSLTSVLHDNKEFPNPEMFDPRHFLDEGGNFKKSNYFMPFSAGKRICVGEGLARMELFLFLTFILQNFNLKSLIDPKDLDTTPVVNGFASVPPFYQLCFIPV
CYP2D6, sequence (P10635 whole entry): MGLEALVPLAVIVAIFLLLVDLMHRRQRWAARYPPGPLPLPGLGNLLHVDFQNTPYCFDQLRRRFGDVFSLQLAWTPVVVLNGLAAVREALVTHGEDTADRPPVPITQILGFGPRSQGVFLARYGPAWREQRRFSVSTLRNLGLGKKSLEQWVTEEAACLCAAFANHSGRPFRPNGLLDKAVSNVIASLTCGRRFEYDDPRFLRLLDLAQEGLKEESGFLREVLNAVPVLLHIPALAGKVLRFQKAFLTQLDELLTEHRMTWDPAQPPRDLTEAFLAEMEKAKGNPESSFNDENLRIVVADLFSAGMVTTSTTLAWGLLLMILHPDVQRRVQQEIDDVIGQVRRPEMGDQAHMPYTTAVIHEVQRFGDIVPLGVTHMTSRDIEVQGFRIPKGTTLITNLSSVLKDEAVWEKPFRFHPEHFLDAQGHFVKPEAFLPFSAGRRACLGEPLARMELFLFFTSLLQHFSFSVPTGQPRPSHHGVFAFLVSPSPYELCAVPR

## CC(C)[N+](C)(CCOC(=O)C1c2ccccc2Oc2ccccc21)C(C)C [PROPANTHELINE BROMIDE]
[1]
  remaining at 5 min, 100 µM: 90.7%
[2]
  remaining at 0.5 h, 100 µM: 41.3%
[3]
  remaining at 0.25 h, 100 µM: 66.5%
[4]
  remaining at 2 h, 100 µM: 1.7%
[5]
  remaining at 1 h, 100 µM: 11.6%

## O=C(O)Cc1ccccc1Nc1c(Cl)cccc1Cl [DICLOFENAC]
[6]
  CLint scaled: 226 mL/min/kg
[7]
  half-life: 5.5 min

## O=c1c(O)c(-c2ccc(O)c(O)c2)oc2cc(O)cc(O)c12 [QUERCETIN]
[8]
  inhibition at 5 min, 10 µM: 77.2%

## Nc1ccc(S(=O)(=O)Nc2ccnn2-c2ccccc2)cc1 [SULFAPHENAZOLE]
[9]
  inhibition at 10 min, 3 µM: 79%

## O=C(Nc1cc(Cl)ccc1Cl)c1nc(-c2ccccc2)cs1
[10]
  inhibition at 0.5 h, 100 µM: 96.2%
[11]
  Ratio IC50: 20.5
[12]
  IC50: 10.1 nM
[13]
  Ratio IC50: 8
[14]
  IC50: 80.9 nM
[15]
  IC50: 208 nM

## O=C(Nc1cccc(F)c1)c1nc(-c2ccccc2)cs1
[10]
  inhibition at 0.5 h, 100 µM: 82.2%
[11]
  Ratio IC50: 9
[12]
  IC50: 23.9 nM
[13]
  Ratio IC50: 19.4
[14]
  IC50: 465 nM
[15]
  IC50: 215 nM

## CCC1(c2ccccc2)NC(=O)N(Cc2ccccc2)C1=O (stereo unspecified)
[16]
  inhibition at 0.5 h, 3 µM: 89.8%

## O=C(Nc1ccc(OC(F)(F)F)cc1)c1nc(-c2ccccc2)cs1
[10]
  inhibition at 0.5 h, 100 µM: 92.2%
[11]
  Ratio IC50: 28.6
[12]
  IC50: 7.45 nM
[13]
  Ratio IC50: 63.4
[14]
  IC50: 472 nM
[15]
  IC50: 213 nM

## CC(=O)O[C@H]1C(=O)[C@@]2(C)[C@H]([C@H](OC(=O)c3ccccc3)[C@]3(O)C[C@H](OC(=O)[C@H](O)[C@@H](NC(=O)c4ccccc4)c4ccccc4)C(C)=C1C3(C)C)[C@]1(OC(C)=O)CO[C@@H]1C[C@@H]2O [PACLITAXEL]
[17]
  Ratio IC50: 263.8
[18]
  IC50: 31.4 nM
[19]
  IC50: 8290 nM

## COc1ccc(NC(=O)c2nc(-c3ccccc3)cs2)cc1
[10]
  inhibition at 0.5 h, 100 µM: 95%
[11]
  Ratio IC50: 42
[12]
  IC50: 11.2 nM
[13]
  Ratio IC50: 80.2
[14]
  IC50: 899 nM
[15]
  IC50: 470 nM

## C=C[C@H]1C[N@@]2CC[C@H]1C[C@@H]2[C@@H](O)c1ccnc2ccc(OC)cc12 [QUINIDINE]
[20]
  inhibition at 10 min, 3 µM: 89.3%

## COc1cc(/C=C/c2ccc(OC)cc2OC)cc(OC)c1
[10]
  inhibition at 0.5 h, 100 µM: 103%
[21]
  Activity: 40.2%
[22]
  Activity: 12.6%
[18]
  IC50: 7900 nM
[23]
  IC50 at 48 h: > 40000 nM
[14]
  IC50: 1940 nM
[24]
  IC50 at 48 h: 2900 nM

## O=C(Nc1cc(Cl)cc(Cl)c1)c1nc(-c2ccccc2)cs1
[10]
  inhibition at 0.5 h, 100 µM: 102%
[11]
  Ratio IC50: 66.2
[12]
  IC50: 3.36 nM
[13]
  Ratio IC50: 212
[14]
  IC50: 712 nM
[15]
  IC50: 223 nM
